Data from patent US20160278367A1, “Pesticidal Composition” (priority 2013, published 2016).

Key:
[1] = solution and stable suspension of citral; assay type: physicochemical
From the text: In one embodiment the terpene component includes one or more terpenes which contain oxygen. Citral, for example citral 95, is an oxygenated […], C10H16O CAS No. 5392-40-5 (3,7-dimethyl-2,6-octadien-1-a1). A stable suspension of citral can be formed up to about 2500 ppm. Citral can be made into a solution at up to about 500 ppm. A stable suspension of hollow glucan particles incorporating citral of 25 ppt citral can be made.
In one embodiment the terpene component includes one or more terpenes which contain oxygen. Citral, for example citral 95, is an oxygenated […], C10H16O CAS No. 5392-40-5 (3,7-dimethyl-2,6-octadien-1-a1) . A stable suspension of citral can be formed up to about 2500 ppm. Citral can be made into a solution at up to about 500 ppm. A stable suspension of hollow glucan particles incorporating citral of 25 ppt citral can be made.

hematophagous arthropods = assay: terpenes fatal to hematophagous arthropods (test not described)

Structure (SMILES) | citral can be made into a solution at up to ([1]; solution) | stable suspension of citral can be formed up to ([1]; suspension) | fatal to hematophagous arthropods (hematophagous arthropods)
CC(C)=CCCC(C)=CC=O (mixture of isomers) [Citral, 3,7-dimethyl-2,6-octadien-1-a1] | about 500 ppm | about 2500 ppm | 
CC(=O)/C=C/C1=C(C)CCCC1(C)C [beta-ionone] |  |  | fatal
C=C(C)C1CC=C(C)C(=O)C1 (stereo not drawn) [carvone] |  |  | fatal
C=CCc1ccc(O)c(OC)c1 [eugenol] |  |  | fatal
CC(C)=CCC/C(C)=C/CO [geraniol] |  |  | fatal
C=CC(C)(O)CCC=C(C)C (stereo not drawn) [linalool] |  |  | fatal
C=CC(=C)CCC=C(C)C [myrcene] |  |  | fatal
C=C(C)[C@H]1CC=C(C)CC1 [redistilled limonene, limonene] |  |  | fatal
